Measured values as given in patent publication US6603046B1, “Bis-aromatic a,β-unsaturated ketones” (Lica Pharmaceuticals A/S, priority 1992, dated 2003).
In brackets after ≈: the same amount, converted by molar mass. Like-named read-outs stand apart in the source and are kept apart here.

What was measured:
[1] = tested on: L. major amastigotes in U937 cells; assay: L. major amastigotes in U937 cells, microscopic counting (Example 7); assay type: cell-based, Leishmania major
Corynebacterium species = assay: microbe, parasite or virus in culture; assay type: cell-based
[2] = tested on: L. major in human PBM-derived macrophages; assay: L. major in human PBM-derived macrophages, microscopic counting (Example 7); assay type: cell-based, Leishmania major
M. intracellular = assay: Radiometric MIC (Example 19); assay type: cell-based; settings: n=9
[3] = tested on: Staphylococcus aureus ATCC 25923; assay: MIC on control strain, aerobic and microaerophilic (Example 18); assay type: cell-based; settings: ATCC25923, 2 h, 2 hours incubation
Procedure: Staphylococcus aureus ATCC 25923 was used as control strain. The Helicobacter pylori strains were subcultured on chocolate agar plates with cysteine in a microaerophilic atmosphere at 37° C. for 72 hours and kept frozen at −80° C. until assayed.
The MIC rows were incubated under microaerophilic conditions for two hours. Hereafter aliquots of 10 μl were taken from all dilution steps and plated on chocolate agar with cysteine and incubated in a microaerophilic atmosphere for 72 hours at 37° C. The control strain Staphylococcus aureus was incubated both aerobically and microaerophilically at 37° C. for 24 hours. All plates were read by the Karber method.

[4] = tested on: Non-haemolytic streptacocci; assay: MIC, macrodilution (Example 17); assay type: cell-based, Non-haemolytic streptococci; settings: 1 strain
[5] = tested on: chloroquine-sensitive P. falciparum 3D7A strain; assay: In vitro growth of P. falciparum 3D7A, 3H-hypoxanthine uptake (Example 15); assay type: cell-based, Plasmodium falciparum; settings: for Percentage inhibition of 3H-hypoxanthine uptake (mean ± SEM): title: percentage inhibition of 3H-hypoxanthine uptake
[6] = tested on: human lymphocytes, neutrophils, and monocytes; assay: Trypan blue dye exclusion method; assay type: cell-based; settings: 20 μg/ml
Procedure: Trypan blue dye exclusion method. This is a standard method used to determine cell viability. The assay is performed by incubating a given cell suspension with trypan blue for various periods of time after which the cells are examined under microscope. Dead cells will take up the dye and therefore show a blue colour. Percent viability is determined by counting at least a total of 200 cells.

L. gormanii = assay: microbe, parasite or virus in culture; assay type: cell-based; settings: Fluoribacter gormanii
L. micdadei = assay: microbe, parasite or virus in culture; assay type: cell-based, Legionella micdadei
human monocytes = assay: Zymosan-enhanced chemiluminescence, monocytes; assay type: cell-based; settings: Monocyte, read-out: percentage inhibition of chemiluminescence response to opsonized zymosan (mean ± SEM)
Procedure: Chemiluminescence. Monocytes were prepared from heparinized blood by metrizoate sodium-Ficoll (the same as lymphocyte proliferation). Polymorphonuclear leucocytes (PMN) were prepared from heparinized blood by dextran sedimentation and metrizoate sodium-Ficoll separation. Remaining erythrocytes were removed by hypotonic lysis. A zymosan-enhanced chemiluminescence assay was used. The assay was performed in a total volume of 5.5 ml at ambient temperature in glass scintillation vials. A Beckman L 8000 scintillation counter (placed under air-conditioned, thermostat controlled, 21±1° C. conditions) was used in the out-of-coincidence mode A 1.1 ml portion of PMN or monocyte suspension (1×10^6 cells per ml) was pre-incubated with 1.1 ml of various concentrations of licochalcone A for 30 min at 37° C. in a rotor at 20 rpm Luminol (5-amino-2,3-dihydro-1,4-phatalazinedione) obtained from Sigma Chemical Co., St Louis, Mo., U.S.A., was maintained as a stock solution of 10 mg/ml in NaOH (0.1 N) and diluted in Krebs-Ringer solution immediately before use. Each vial contained 5×10^5 pre-incubated PMN or monocyte, 4 mg of opsonized zymosan (Sigma), 50 μl of luminol solution, and 4.45 ml of Krebs-Ringer solution containing 5 mM glucose. The final concentration of luminol in the assay mixture was 5×10^−8m.

[7] = tested on: L. major WHO pentostam resistant strain promastigotes; assay: Pentostam resistant L. major promastigotes, 3H-thymidine uptake (Example 10); settings: 5 μg/ml
[8] = 3 days after infection, 0.5 μg/ml
[9] = 3 days after infection, 1 μg/ml
[10] = 3 days after infection, 5 μg/ml
[11] = 3 days after infection, 10 μg/ml
[12] = 6 days after infection, 0.5 μg/ml
[13] = 6 days after infection, 1 μg/ml
[14] = 6 days after infection, 5 μg/ml
[15] = 6 days after infection, 10 μg/ml

`C=CC(C)(C)c1cc(/C=C/C(=O)c2ccc(O)cc2)c(OC)cc1O` [Licochalcone A, licochalcone A] was tested, and the “% of amast.” value [1, 8] was 96.6%, the “% of infec. cells” value [1, 8] was 28.0% and the amast. per cell [1, 8] was 2.3. For the same molecule, the proma per cell [1, 8] was 0.1, the total amast. [1, 8] was 65.0 ×10^6 and the total proma. [1, 8] was 2.3 ×10^6. For the same molecule, the “% of amast.” value [1, 9] was 91.2%, the “% of infec. cells” value [1, 9] was 19.0% and the amast. per cell [1, 9] was 2.0. The proma per cell [1, 9] was 0.2, the total amast. [1, 9] was 38.3 ×10^6 and the total proma. [1, 9] was 3.7 ×10^6. For the same molecule, the “% of infec. cells” value [1, 10] was 0%, the “% of infec. cells” value [1, 11] was 0% and the “% of amast.” value [1, 12] was 100%. The “% of infec. cells” value [1, 12] was 13.7%, the amast. per cell [1, 12] was 3.1 and the proma per cell [1, 12] was 0. The total amast. [1, 12] was 42.0 ×10^6, the total proma. [1, 12] was 0 ×10^6 and the “% of amast.” value [1, 13] was 100%. The “% of infec. cells” value [1, 13] was 3.0%, the amast. per cell [1, 13] was 1.8 and the proma per cell [1, 13] was 0. The total amast. [1, 13] was 5.3 ×10^6, the total proma. [1, 13] was 0 ×10^6 and the “% of infec. cells” value [1, 14] was 0%. The “% of infec. cells” value [1, 15] was 0%, the MIC (Corynebacterium species) was 0.3 to 4 µg/mL (≈ 0.887 to 11.8 µM) and the MIC (Corynebacterium species; read-out: MIC of one very sensitive corynebacterium species) was 0.3 µg/mL. The “% of amast.” value [2, 8] was 91.6%, the “% of infec. cells” value [2, 8] was 14.0% and the amast. per cell [2, 8] was 1.7. The proma. per cell [2, 8] was 0.1, the total amast. [2, 8] was 23.3 ×10^6 and the total proma. [2, 8] was 2.0 ×10^6. The “% of amast.” value [2, 9] was 88.2%, the “% of infec. cells” value [2, 9] was 10.7% and the amast. per cell [2, 9] was 1.7. The proma. per cell [2, 9] was 0.2, the total amast. [2, 9] was 17.7 ×10^6 and the total proma. [2, 9] was 2.0 ×10^6. For the same molecule, the “% of infec. cells” value [2, 10] was 0%, the “% of infec. cells” value [2, 11] was 0% and the “% of amast.” value [2, 12] was 100%. The “% of infec. cells” value [2, 12] was 8.0%, the amast. per cell [2, 12] was 1.7 and the proma. per cell [2, 12] was 0. The total amast. [2, 12] was 14 ×10^6, the total proma. [2, 12] was 0 ×10^6 and the “% of amast.” value [2, 13] was 100%. For the same molecule, the “% of infec. cells” value [2, 13] was 7.3%, the amast. per cell [2, 13] was 2.2 and the proma. per cell [2, 13] was 0. The total amast. [2, 13] was 16 ×10^6, the total proma. [2, 13] was 0 ×10^6 and the “% of infec. cells” value [2, 14] was 0%. For the same molecule, the “% of infec. cells” value [2, 15] was 0%, the meanMIC (M. intracellular) was 50.0 µg/mL and the rangeMIC (M. intracellular) was 20 to 80 µg/mL. The MIC ([3]; microaerophilic conditions) was greater than 500 µg/mL, the MIC ([3]; normal atmosphere) was 4 µg/mL (≈ 11.8 µM) and the MIC [4] was 4 µg/mL (≈ 11.8 µM). The IC50 ([5]; Plasmodium falciparum, read-out: concentration in which growth was retarded by 50%) was 0.5 to 1 µg/mL (≈ 1.48 to 2.96 µM), the “Percentage inhibition of 3H-hypoxanthine uptake (mean ± SEM)” value (“Percentage inhibition … (mean ± SEM)” for short) ([5]; 0.1 μg/ml) was 15.0 ± 3.0% and the “Percentage inhibition … (mean ± SEM)” value ([5]; 0.5 μg/ml) was 39.0 ± 6.0%. The “Percentage inhibition … (mean ± SEM)” value ([5]; 1 μg/ml) was 69.0 ± 4.0%, the “Percentage inhibition … (mean ± SEM)” value ([5]; 5 μg/ml) was 98.0 ± 0.001% and the “Percentage inhibition … (mean ± SEM)” value ([5]; 10 μg/ml) was 98.0 ± 0.0001%. For the same molecule, the “toxic effect, trypan blue dye exclusion” value [6] was “no toxic effect”, the MIC (L. gormanii) was 500 µg/mL (≈ 1480 µM) and the MIC (L. micdadei; Fluoribacter gormanii, read-out: MIC-values, Legionella gormanii and the 4 L. micdadei isolates) was 15 to 500 µg/mL (≈ 44.3 to 1480 µM). For the same molecule, the MIC (L. micdadei; Legionella micdadei, L. micdadei (Bari)) was 60 µg/mL (≈ 177 µM), the MIC (L. micdadei; Legionella micdadei, L. micdadei (Detroit)) was 15 µg/mL (≈ 44.3 µM) and the MIC (L. micdadei; Legionella micdadei, L. micdadei (F 1433)) was 60 µg/mL (≈ 177 µM). The MIC (L. micdadei; Legionella micdadei, L. micdadei, 1 strain) was 500 µg/mL (≈ 1480 µM), the inhibition at 1 µg/mL (human monocytes; 1 μg/ml) was 8.2 ± 3.3% and the inhibition at 2 µg/mL (human monocytes; 2 μg/ml) was 7.8 ± 6.5%. It also gave an inhibition at 5 µg/mL (human monocytes; 5 μg/ml) of 24.8 ± 5.3%, an inhibition at 10 µg/mL (human monocytes; 10 μg/ml) of 37.9 ± 3.1% and an inhibition at 20 µg/mL (human monocytes; 20 μg/ml) of 56.5 ± 3.8%. For the same molecule, the “growth of pentostam resistant parasites” value [7] was “completely inhibited the growth”.
